{"source": "patent US4416884A", "about": "“Piperazinylbenzoheterocyclic compounds” (Otsuka Pharmaceutical Co., Ltd., priority 1978, dated 1983)", "type_in_all_cases": "cell-based", "key": {"[1]": {"tested_on": "Corinebacterium diphteriae", "experiment": "antimicrobial activity, serial dilution method on agar plate", "in_short": "(§1)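 Agar-plate serial dilution in Heart Infusion agar; inocula prepared at 1×10^8 cells/ml (O.D. 660 mμ=0.07 to 0.16) and at 1×10^6 cells/ml by dilution. Values are minimum inhibitory concentrations in mcg/ml.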"}, "[2]": {"tested_on": "Escherichia Coli NIHJ JC-2 (IFO 12734)", "experiment": "antimicrobial activity, serial dilution method on agar plate", "details": "Escherichia coli, read-out: Minimum Inhibitory Concentration", "in_short": "as §1"}, "[3]": {"tested_on": "Klebsiella pneumoniae ST-101", "experiment": "antimicrobial activity, serial dilution method on agar plate", "in_short": "as §1"}, "[4]": {"tested_on": "Klebsiella pneumoniae", "experiment": "antimicrobial activity, serial dilution method on agar plate", "in_short": "as §1"}, "[5]": {"tested_on": "Proteus morganii IID Kono", "experiment": "antimicrobial activity, serial dilution method on agar plate", "details": "Morganella morganii", "in_short": "as §1"}, "[6]": {"tested_on": "Pseudomonas aeruginosa E-2", "experiment": "antimicrobial activity, serial dilution method on agar plate", "in_short": "as §1"}, "[7]": {"tested_on": "Pseudomonas maltophilia IFO 12692", "experiment": "antimicrobial activity, serial dilution method on agar plate", "details": "Stenotrophomonas maltophilia, IFO12692, read-out: Minimum Inhibitory Concentration", "in_short": "as §1"}, "[8]": {"tested_on": "Salmonella typhi 0-901 (NCTC 8393)", "experiment": "antimicrobial activity, serial dilution method on agar plate", "details": "Salmonella enterica, read-out: Minimum Inhibitory Concentration", "in_short": "as §1"}, "[9]": {"tested_on": "Streptococcus pneumoniae Type II", "experiment": "antimicrobial activity, serial dilution method on agar plate", "in_short": "as §1"}, "[10]": {"tested_on": "Streptococcus pyogenes IID Cook", "experiment": "antimicrobial activity, serial dilution method on agar plate", "in_short": "as §1"}, "[11]": {"tested_on": "Streptococcus pyogenes IID S-23", "experiment": "antimicrobial activity, serial dilution method on agar plate", "in_short": "as §1"}, "[12]": {"tested_on": "Test Organism 1 (Escherichia Coli NIHJ)", "experiment": "influence of the addition of horse serum on the MIC"}, "[13]": {"tested_on": "Test Organism 2 (Escherichia Coli NIHJ JC-2 (IFO 12734))", "experiment": "influence of the addition of horse serum on the MIC"}, "[14]": {"tested_on": "Test Organism 17 (Pseudomonas putida IFO 13696)", "experiment": "influence of the addition of horse serum on the MIC"}, "[15]": {"tested_on": "Test Organism 16 (Pseudomonas maltophilia IFO 12692)", "experiment": "influence of the addition of horse serum on the MIC", "details": "Stenotrophomonas maltophilia"}, "[16]": {"tested_on": "Test Organism 27 (Streptococcus pneumoniae Type III)", "experiment": "influence of the addition of horse serum on the MIC"}, "[17]": {"details": "read-out: Minimum Inhibitory Concentration, inoculum 1 × 10^6 cells/ml"}, "[18]": {"details": "read-out: Minimum Inhibitory Concentration, inoculum 1 × 10^8 cells/ml"}, "[19]": {"details": "read-out: Minimum Inhibitory Concentration, horse serum 0%, inoculum 10^6"}, "[20]": {"details": "read-out: Minimum Inhibitory Concentration, horse serum 0%, inoculum 10^8"}, "[21]": {"details": "read-out: Minimum Inhibitory Concentration, horse serum 10%, inoculum 10^6"}, "[22]": {"details": "read-out: Minimum Inhibitory Concentration, horse serum 10%, inoculum 10^8"}, "[23]": {"details": "read-out: Minimum Inhibitory Concentration, horse serum 20%, inoculum 10^6"}, "[24]": {"details": "read-out: Minimum Inhibitory Concentration, horse serum 20%, inoculum 10^8"}, "[25]": {"details": "read-out: Minimum Inhibitory Concentration, horse serum 40%, inoculum 10^6"}, "[26]": {"details": "read-out: Minimum Inhibitory Concentration, horse serum 40%, inoculum 10^8"}}, "note": "Where two headings read alike, the source gives them in different places."}
{"compound": "CC1Cc2c(N3CCNCC3)ccc3c(=O)c(C(=O)O)cn1c23", "note": "(stereo not drawn) [C]", "values": [{"measurement": "MIC", "setting": "[1]; [17]", "result": 6.3, "unit": "µg/mL"}, {"measurement": "MIC", "setting": "[1]; [18]", "result": 25, "unit": "µg/mL"}, {"measurement": "MIC", "setting": "[2]", "result": 1.6, "unit": "µg/mL"}, {"measurement": "MIC", "setting": "[3]; ST101, read-out: Minimum Inhibitory Concentration, inoculum 1 × 10^6 cells/ml", "result": 0.2, "unit": "µg/mL"}, {"measurement": "MIC", "setting": "[3]; ST101, read-out: Minimum Inhibitory Concentration, inoculum 1 × 10^8 cells/ml", "result": 0.8, "unit": "µg/mL"}, {"measurement": "MIC", "setting": "[4]; [17]", "result": 0.8, "unit": "µg/mL"}, {"measurement": "MIC", "setting": "[4]; [18]", "result": 0.8, "unit": "µg/mL"}, {"measurement": "MIC", "setting": "[5]; [17]", "result": 3.1, "unit": "µg/mL"}, {"measurement": "MIC", "setting": "[5]; [18]", "result": 3.1, "unit": "µg/mL"}, {"measurement": "MIC", "setting": "[6]; E2, read-out: Minimum Inhibitory Concentration, inoculum 1 × 10^6 cells/ml", "result": 3.1, "unit": "µg/mL"}, {"measurement": "MIC", "setting": "[6]; E2, read-out: Minimum Inhibitory Concentration, inoculum 1 × 10^8 cells/ml", "result": 6.3, "unit": "µg/mL"}, {"measurement": "MIC", "setting": "[7]", "result": 6.3, "unit": "µg/mL"}, {"measurement": "MIC", "setting": "[8]; inoculum 1 × 10^6 cells/ml", "result": 0.2, "unit": "µg/mL"}, {"measurement": "MIC", "setting": "[8]; inoculum 1 × 10^8 cells/ml", "result": 0.4, "unit": "µg/mL"}, {"measurement": "MIC", "setting": "[9]; [17]", "result": 50, "unit": "µg/mL"}, {"measurement": "MIC", "setting": "[9]; [18]", "result": 100, "unit": "µg/mL"}, {"measurement": "MIC", "setting": "[10]; [17]", "result": 25, "unit": "µg/mL"}, {"measurement": "MIC", "setting": "[10]; [18]", "result": 50, "unit": "µg/mL"}, {"measurement": "MIC", "setting": "[11]; IIDS23, read-out: Minimum Inhibitory Concentration, inoculum 1 × 10^6 cells/ml", "result": 50, "unit": "µg/mL"}, {"measurement": "MIC", "setting": "[11]; IIDS23, read-out: Minimum Inhibitory Concentration, inoculum 1 × 10^8 cells/ml", "result": 100, "unit": "µg/mL"}, {"measurement": "MIC", "setting": "[12]; [19]", "result": 12.5, "unit": "µg/mL"}, {"measurement": "MIC", "setting": "[12]; [20]", "result": 12.5, "unit": "µg/mL"}, {"measurement": "MIC", "setting": "[12]; [21]", "result": 6.3, "unit": "µg/mL"}, {"measurement": "MIC", "setting": "[12]; [22]", "result": 12.5, "unit": "µg/mL"}, {"measurement": "MIC", "setting": "[12]; [23]", "result": 6.3, "unit": "µg/mL"}, {"measurement": "MIC", "setting": "[12]; [24]", "result": 12.5, "unit": "µg/mL"}, {"measurement": "MIC", "setting": "[12]; [25]", "result": 6.3, "unit": "µg/mL"}, {"measurement": "MIC", "setting": "[12]; [26]", "result": 12.5, "unit": "µg/mL"}, {"measurement": "MIC", "setting": "[13]; [19]", "result": 1.6, "unit": "µg/mL"}, {"measurement": "MIC", "setting": "[13]; [20]", "result": 1.6, "unit": "µg/mL"}, {"measurement": "MIC", "setting": "[13]; [21]", "result": 1.6, "unit": "µg/mL"}, {"measurement": "MIC", "setting": "[13]; [22]", "result": 1.6, "unit": "µg/mL"}, {"measurement": "MIC", "setting": "[13]; [23]", "result": 1.6, "unit": "µg/mL"}, {"measurement": "MIC", "setting": "[13]; [24]", "result": 0.8, "unit": "µg/mL"}, {"measurement": "MIC", "setting": "[13]; [25]", "result": 0.4, "unit": "µg/mL"}, {"measurement": "MIC", "setting": "[13]; [26]", "result": 0.4, "unit": "µg/mL"}, {"measurement": "MIC", "setting": "[14]; IFO13696, read-out: Minimum Inhibitory Concentration, horse serum 0%, inoculum 10^6", "result": 0.4, "unit": "µg/mL"}, {"measurement": "MIC", "setting": "[14]; IFO13696, read-out: Minimum Inhibitory Concentration, horse serum 0%, inoculum 10^8", "result": 0.8, "unit": "µg/mL"}, {"measurement": "MIC", "setting": "[14]; IFO13696, read-out: Minimum Inhibitory Concentration, horse serum 10%, inoculum 10^6", "result": 0.4, "unit": "µg/mL"}, {"measurement": "MIC", "setting": "[14]; IFO13696, read-out: Minimum Inhibitory Concentration, horse serum 10%, inoculum 10^8", "result": 0.8, "unit": "µg/mL"}, {"measurement": "MIC", "setting": "[14]; IFO13696, read-out: Minimum Inhibitory Concentration, horse serum 20%, inoculum 10^6", "result": 0.4, "unit": "µg/mL"}, {"measurement": "MIC", "setting": "[14]; IFO13696, read-out: Minimum Inhibitory Concentration, horse serum 20%, inoculum 10^8", "result": 0.8, "unit": "µg/mL"}, {"measurement": "MIC", "setting": "[14]; IFO13696, read-out: Minimum Inhibitory Concentration, horse serum 40%, inoculum 10^6", "result": 0.4, "unit": "µg/mL"}, {"measurement": "MIC", "setting": "[14]; IFO13696, read-out: Minimum Inhibitory Concentration, horse serum 40%, inoculum 10^8", "result": 0.4, "unit": "µg/mL"}, {"measurement": "MIC", "setting": "[15]; IFO12692, read-out: Minimum Inhibitory Concentration, horse serum 0%, inoculum 10^6", "result": 1.6, "unit": "µg/mL"}, {"measurement": "MIC", "setting": "[15]; IFO12692, read-out: Minimum Inhibitory Concentration, horse serum 0%, inoculum 10^8", "result": 1.6, "unit": "µg/mL"}, {"measurement": "MIC", "setting": "[15]; IFO12692, read-out: Minimum Inhibitory Concentration, horse serum 10%, inoculum 10^6", "result": 1.6, "unit": "µg/mL"}, {"measurement": "MIC", "setting": "[15]; IFO12692, read-out: Minimum Inhibitory Concentration, horse serum 10%, inoculum 10^8", "result": 1.6, "unit": "µg/mL"}, {"measurement": "MIC", "setting": "[15]; IFO12692, read-out: Minimum Inhibitory Concentration, horse serum 20%, inoculum 10^6", "result": 0.4, "unit": "µg/mL"}, {"measurement": "MIC", "setting": "[15]; IFO12692, read-out: Minimum Inhibitory Concentration, horse serum 20%, inoculum 10^8", "result": 0.8, "unit": "µg/mL"}, {"measurement": "MIC", "setting": "[15]; IFO12692, read-out: Minimum Inhibitory Concentration, horse serum 40%, inoculum 10^6", "result": 0.4, "unit": "µg/mL"}, {"measurement": "MIC", "setting": "[15]; IFO12692, read-out: Minimum Inhibitory Concentration, horse serum 40%, inoculum 10^8", "result": 0.4, "unit": "µg/mL"}, {"measurement": "MIC", "setting": "[16]; [19]", "result": 3.1, "unit": "µg/mL"}, {"measurement": "MIC", "setting": "[16]; [20]", "result": 6.3, "unit": "µg/mL"}, {"measurement": "MIC", "setting": "[16]; [21]", "result": 3.1, "unit": "µg/mL"}, {"measurement": "MIC", "setting": "[16]; [22]", "result": 6.3, "unit": "µg/mL"}, {"measurement": "MIC", "setting": "[16]; [23]", "result": 3.1, "unit": "µg/mL"}, {"measurement": "MIC", "setting": "[16]; [24]", "result": 3.1, "unit": "µg/mL"}, {"measurement": "MIC", "setting": "[16]; [25]", "result": 1.6, "unit": "µg/mL"}, {"measurement": "MIC", "setting": "[16]; [26]", "result": 3.1, "unit": "µg/mL"}]}
